Values of other authors, collected in patent US20240238442A1, “LIPOSOMES DISPLAYING A GLYCAN LIGAND FOR CD33 AND THEIR USE IN THE TREATMENT OF ALZHEIMER'S DISEASE” (THE GOVERNORS OF THE UNIVERSITY OF ALBERTA, priority 2021, published 2024).

Target: CD33 (Homo sapiens, UniProt P20138)
Settings: free ligand

Chain of CD33 (P20138 18-364): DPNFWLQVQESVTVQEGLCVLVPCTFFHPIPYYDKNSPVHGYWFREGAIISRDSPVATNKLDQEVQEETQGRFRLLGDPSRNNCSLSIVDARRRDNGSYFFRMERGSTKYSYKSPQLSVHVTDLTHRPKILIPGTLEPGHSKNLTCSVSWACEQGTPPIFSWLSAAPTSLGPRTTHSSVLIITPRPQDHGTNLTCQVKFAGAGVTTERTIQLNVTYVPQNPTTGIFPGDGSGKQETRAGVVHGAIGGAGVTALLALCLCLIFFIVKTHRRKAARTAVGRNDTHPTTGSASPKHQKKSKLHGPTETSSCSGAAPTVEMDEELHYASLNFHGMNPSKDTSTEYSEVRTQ

For Cc1cc(C(=O)NC[C@@H](O)CC2O[C@@](OCC3OC(O[C@@H]4C(CO)O[C@@H](OCCN)C(O)C4O)C(O)C(O)[C@H]3O)(C(=O)O)CC(O)[C@H]2C(O)NC(=O)Cn2cc(C3CCCCC3)nn2)cc(C)c1O (stereo partly shown) [CD33L], the Kd is given as 87 µM.
